Measured values: patent publication US20070037841A1, “Inhibitors” (priority 2003, published 2007)
pIC50: −log10 of the molar value.

Key:
TAR = experiment: SPR binding of RNA to naphthyridine dimer immobilized on sensor chip; parameters: species or system HIV; details: TAR RNA over immobilized naphthyridine dimer
Procedure: (§1) In a manner shown in FIG. 17, a binding strength of each of RRE, RRE-neg, TAR, and single-stranded RNA (ss RNA) with respect to naphthyridine dimer immobilized on an SPR sensor chip was analyzed. Like RRE, TAR is known as an HIV-RNA target. In FIG. 18, the solid line indicates the binding strength of RRE, the dotted line the binding strength of RRE-neg, the dashed line the binding strength of TAR, and the double-dashed line the binding strength of ssRNA.

RRE [1] = experiment: UV absorption spectrum screening of drugs mixed with RRE; assay type: binding, HIV-1; details: range of 300 nm to 400 nm; absorption of free compound subtracted or compared
Procedure: Referring to UV absorption spectra of RRE in the presence and absence of naphthyridine dimer, screenings of the drugs was carried out. […] In FIG. 7, the solid line indicates the UV absorption spectrum of RRE alone, and the dotted line indicates a UV absorption spectrum when the absorption of naphthyridine dimer free is subtracted from the absorption of the mixture of naphthyridine dimer and RRE. […] In FIG. 8, the solid line indicates the UV absorption spectrum of RRE alone, and the dotted line indicates a UV absorption spectrum when the absorption of the naphthyridine-azaquinolone hybrid free is subtracted from the absorption of the mixture of the naphthyridine-azaquinolone hybrid and RRE. […] In FIG. 9, the solid line indicates the UV absorption spectrum of RRE alone, and the dotted line indicates a UV absorption spectrum when the absorption of the first quinoline-containing compound free is subtracted from the absorption of the mixture of the first quinoline-containing compound and RRE. […] In FIG. 10, the solid line indicates the UV absorption spectrum of RRE alone, and the dotted line indicates a UV absorption spectrum when the absorption of the second quinoline-containing compound free is subtracted from the absorption of the mixture of the second quinoline-containing compound and RRE. As represented by structural formula (8), the second quinoline-containing compound is obtained by replacing one naphthyridine of naphthyridine dimer with a quinoline incapable of hydrogen-binding to a guanine. [drawing 13] In the present example, comparison was made within a range of 300 nm to 400 nm where no absorption of RRE occurs. Naphthyridine is represented by structural formula (9). Azaquinolone is represented by structural formula (10). […] FIGS. 11-13 respectively illustrate the UV absorption spectra of naphthyridine, azaquinolone, or quinolone alone and the mixture thereof with RRE.

Rev-RRE complex = experiment: Fluorescence polarization (anisotropy) inhibition of Rev-RRE complex formation; assay type: binding, HIV-1; details: for pIC50: Rev-Fl / RRE, read-out: IC50 value for inhibiting complex formation; for potency of inhibiting Rev-RRE complex formation compared with neomycine B: anisotropy decrease versus inhibitor concentration
Procedure: By using a fluorescence polarization method, it was tested whether Rev-RRE complex formation was inhibited by naphthyridine dimer and the naphthyridine-azaquinolone hybrid.
A greater molecular weight results in a greater polarization degree, i.e., a greater anisotropy.
Naphthyridine dimer, the naphthyridine-azaquinolone hybrid, and neomycine B were used as inhibitors, and anisotropies of each of the inhibitors was measured. […] The horizontal axis indicates the concentration of each of the inhibitors.
An IC50 value of the trinaphthyridine-azaquinolone hybrid used as an inhibitor was obtained by using the fluorescence polarization method. The IC50 value of the trinaphthyridine-azaquinolone hybrid was 0.2 μM. Further, in FIG. 27, the solid line indicates how a CD spectrum of RRE alone was changed, the dotted line indicates how a CD spectrum of RRE was changed when naphthyridine dimer was added to RRE, the dashed line indicates how a CD spectrum of RRE was changed when the trinaphthyridine-azaquinolone hybrid was added to RRE, and […].
Naphthyridine dimer, the naphthyridine-azaquinolone hybrid, the neomycine B, and the trinaphthyridine-azaquinolone hybrid were used as inhibitors, and anisotropies of each of the inhibitors was measured.

[2] = tested on: single-stranded RNA (ss RNA); experiment: SPR binding of RNA to naphthyridine dimer immobilized on sensor chip; details: ssRNA over immobilized naphthyridine dimer
Procedure: as §1

RRE [3] = experiment: UV titration of naphthyridine dimer with RRE; assay type: binding, HIV-1
Procedure: UV titration was carried out in order to study how naphthyridine dimer bound to RRE.
It was confirmed that as the concentration of RRE increased, the UV absorbance of naphthyridine dimer decreased and the UV absorbance of a complex increased above an isosbestic point.

RRE [4] = experiment: SPR binding of RNA to naphthyridine dimer immobilized on sensor chip; parameters: species or system HIV-1; details: RRE over immobilized naphthyridine dimer
Procedure: as §1

RRE [5] = experiment: CD spectrum change of RRE (and RRE-neg control) on binding of drugs; parameters: species or system HIV-1; details: for binding specificity from CD spectra of RRE versus RRE-neg: RRE-neg has no internal loop (GG and GA mismatch)
Procedure: A change in CD spectrum of RRE due to its binding to each of the drugs was analyzed. In FIG. 14, the solid line indicates a CD spectrum of RRE alone, the dotted line indicates a CD spectrum of a mixture of naphthyridine dimer and RRE, and the dashed line indicates a CD spectrum of a mixture of the naphthyridine-azaquinolone hybrid and RRE. Further, a change in CD spectrum of RRE-neg due to its binding to each of the drugs was analyzed. RRE-neg has no internal loop found in RRE, the internal loop including a GG mismatch and a GA mismatch.

RRE-neg = experiment: SPR binding of RNA to naphthyridine dimer immobilized on sensor chip; details: RRE-neg over immobilized naphthyridine dimer
Procedure: Further, a change in CD spectrum of RRE-neg due to its binding to each of the drugs was analyzed. RRE-neg has no internal loop found in RRE, the internal loop including a GG mismatch and a GA mismatch.
as §1

Structure (SMILES): Cc1ccc2ccc(NC(=O)CCNCCC(=O)Nc3ccc4ccc(C)nc4n3)nc2n1 [naphthyridine dimer]
- binding strength (SPR signal) (TAR): did not bind at all
- change in UV absorption spectrum on mixing with RRE (RRE [1]): significant changes
- pIC50 (Rev-RRE complex; fluorescence polarization): 5.92
- potency of inhibiting Rev-RRE complex formation compared with neomycine B (Rev-RRE complex): higher potency
- binding strength (SPR signal) [2]: almost no responses
- binding mode to RRE from UV titration (RRE [3]; RRE of various concentrations, absorption at 332 nm): intercalated into a duplex of RRE
- number of naphthyridine dimers forming the complex with RRE (RRE [3]; UV titration): two
- binding strength (SPR signal) (RRE [4]): strong signal
- change in CD spectrum of RRE when compound added (RRE [5]): significant change in the whole spectrum
- binding specificity from CD spectra of RRE versus RRE-neg (RRE [5]): specifically binds to the internal loop of RRE
- binding strength (SPR signal) (RRE-neg): almost no responses

Structure (SMILES): O=C(CCNCCC(=O)Nc1ccc2ccccc2n1)NCc1ccc2ccc(=O)[nH]c2n1 [second quinoline-containing compound]
- change in UV absorption spectrum on mixing with RRE (RRE [1]): no remarkable changes

Structure (SMILES): NCCC(=O)Nc1ccc2ccccc2n1
- change in UV absorption spectrum on mixing with RRE (RRE [1]): almost no changes

Structure (SMILES): NCC1OC(OC2C(CO)OC(OC3C(O)C(N)CC(N)C3OC3OC(CN)C(O)C(O)C3N)C2O)C(N)C(O)C1O (stereo not shown) [neomycine B, reference compound]
- pIC50 (Rev-RRE complex; fluorescence polarization): 5.40

Structure (SMILES): Cc1ccc2ccc(NC(=O)CCNCCC(=O)NCc3ccc4ccc(=O)[nH]c4n3)nc2n1 [naphthyridine-azaquinolone hybrid]
- change in UV absorption spectrum on mixing with RRE (RRE [1]): significant changes
- pIC50 (Rev-RRE complex; fluorescence polarization): 5.70
- potency of inhibiting Rev-RRE complex formation compared with neomycine B (Rev-RRE complex): higher potency
- change in CD spectrum of RRE when compound added (RRE [5]): change at 300 nm or above
- binding specificity from CD spectra of RRE versus RRE-neg (RRE [5]): specifically binds to the internal loop of RRE

Structure (SMILES): Cc1ccc2ccc(NC(=O)CCNCCC(=O)Nc3ccc4ccccc4n3)nc2n1 [first quinoline-containing compound]
- change in UV absorption spectrum on mixing with RRE (RRE [1]): no remarkable changes

Structure (SMILES): Cc1ccc2ccc(NC(=O)CCN(CCCCCN(CCC(=O)Nc3ccc4ccc(C)nc4n3)CCC(=O)Nc3ccc4ccc(C)nc4n3)CCC(=O)NCc3ccc4ccc(=O)[nH]c4n3)nc2n1 [trinaphthyridine-azaquinolone hybrid]
- pIC50 (Rev-RRE complex; fluorescence polarization): 6.70
- activity relative to neomycine B (Rev-RRE complex; fluorescence polarization): approximately twenty
